{
  "source": "paper PMC12722920",
  "about": "“Pharmacokinetics and pharmacodynamics of cannabigerol (CBG) in the C57BL/6Crl mouse” (Frontiers in Pharmacology, 2025)",
  "key": {"C57BL/6Crl mice [1]": {"system": "C57BL/6Crl mice", "assay": "Cannabinoid tetrad: internal body temperature (rectal thermometer)", "assay_type": "in vivo", "settings": "for ED50: Mus musculus, iv"}, "C57BL/6Crl mice [2]": {"system": "C57BL/6Crl mice", "assay": "Cannabinoid tetrad: catalepsy in the ring holding assay", "assay_type": "in vivo", "settings": "for ED50: Mus musculus, iv"}, "[3]": {"design": "method as in Deiana et al., 2012", "settings": "ref Deiana et al., 2012, cited from earlier work"}, "male Sprague Dawley rats": {"system": "male Sprague Dawley rats", "design": "method as in Jenkins et al., 2023", "settings": "acute oral 100 mg/kg, 30 min post-administration; ref Jenkins et al., 2023; cited from earlier work"}, "C57BL/6Crl mice [4]": {"system": "C57BL/6Crl mice", "assay": "Cannabinoid tetrad: nociception by tail-flick latency", "assay_type": "in vivo", "settings": "for ED50: Mus musculus, iv"}, "CB1R": {"system": "CB1R", "design": "method as in earlier work", "settings": "ref El-Alfy et al., 2010; Navarro et al., 2018; Zagzoog et al., 2020; cited from earlier work"}, "male mice": {"system": "male mice", "design": "method as in Zagzoog et al., 2020", "settings": "i.p., 15 min post-injection; ref Zagzoog et al., 2020; cited from earlier work"}, "[5]": {"assay": "Phase II blood concentration 10 min after i.v. administration (HPLC-MS/MS)"}, "[6]": {"settings": "1, 3, 10 or 30 mg/kg i.v., male and female mice"}, "[7]": {"settings": "accounting for blood concentrations measured at 10 min, i.v."}},
  "note": "Like-named read-outs stand apart in the source and are kept apart here.",
  "data": [
    {"molecule": "CCCCCc1cc(O)c(C/C=C(\\C)CCC=C(C)C)c(O)c1", "note": "[CBG, cannabigerol]", "values": [
      {"measurement": "body temperature vs vehicle", "setting": "C57BL/6Crl mice [1]; 10 mg/kg i.p. or p.o., male mice, 15 min post-injection", "value": "significant increase in temperature"},
      {"measurement": "body temperature vs vehicle", "setting": "C57BL/6Crl mice [1]; 10 mg/kg, all routes (i.v. 15 min, i.p. 25 min, p.o. 175 min), male and female mice", "value": "decreased body temperature compared to vehicle"},
      {"measurement": "hypothermia, dose-response", "setting": "C57BL/6Crl mice [1]; [6]", "value": "produced a modest effect but only at the highest dose tested, 30 mg/kg"},
      {"measurement": "ED50", "setting": "C57BL/6Crl mice [1]; 0.25 h, both sexes, 15 min post-administration", "value": "> 30", "unit": "mg/kg"},
      {"measurement": "ED50", "setting": "C57BL/6Crl mice [1]; males", "value": "> 30", "unit": "mg/kg"},
      {"measurement": "effect on body temperature, dose-response", "setting": "C57BL/6Crl mice [1]; i.v., Phase II", "value": "did not alter body temperature"},
      {"measurement": "catalepsy, mean % MPE", "setting": "C57BL/6Crl mice [2]; 10 mg/kg i.p., 20 min post-injection, male and female mice, MPE = 60 s", "value": "5.4% ± 2.5%"},
      {"measurement": "cataleptic response", "setting": "C57BL/6Crl mice [2]; 10 mg/kg i.v., i.p. and p.o., male mice, 5 min post-injection", "value": "did not produce a cataleptic response"},
      {"measurement": "catalepsy, dose-response", "setting": "C57BL/6Crl mice [2]; [6]", "value": "produced a modest effect but only at the highest dose tested, 30 mg/kg"},
      {"measurement": "ED50", "setting": "C57BL/6Crl mice [2]; 5 min, i.v., both sexes, 5 min post-administration, read-out: ED50 catalepsy", "value": "> 30", "unit": "mg/kg"},
      {"measurement": "ED50", "setting": "C57BL/6Crl mice [2]; both sexes, three-parameter nonlinear regression, read-out: ED50 catalepsy, estimate exceeding the dose range (square brackets)", "value": "> 30", "unit": "mg/kg"},
      {"measurement": "ED50", "setting": "C57BL/6Crl mice [2]; males, read-out: ED50 catalepsy", "value": "> 30", "unit": "mg/kg"},
      {"measurement": "Intoxication ratio, catalepsy", "setting": "C57BL/6Crl mice [2]; THC potency/CBG potency corrected for blood concentration at 10 min, both sexes", "value": 0.23},
      {"measurement": "intoxication relative to THC, catalepsy", "setting": "C57BL/6Crl mice [2]; [7]", "value": 23, "unit": "%"},
      {"measurement": "Intoxication ratio, catalepsy", "setting": "C57BL/6Crl mice [2]; females", "value": 0.28},
      {"measurement": "ED50 catalepsy", "setting": "C57BL/6Crl mice [2]; i.v., females", "value": "> 30", "unit": "mg/kg"},
      {"measurement": "Intoxication ratio, catalepsy", "setting": "C57BL/6Crl mice [2]; males", "value": 0.17},
      {"measurement": "time to peak plasma concentration (Tmax)", "setting": "[3]; i.p.", "value": 2, "unit": "h"},
      {"measurement": "time to peak plasma concentration (Tmax)", "setting": "[3]; p.o.", "value": 0.5, "unit": "h"},
      {"measurement": "anxiolytic effects", "setting": "male Sprague Dawley rats", "value": "did not produce anxiolytic effects"},
      {"measurement": "anti-nociceptive response in tail-flick vs vehicle", "setting": "C57BL/6Crl mice [4]; 10 mg/kg i.v., 20 min post-administration, male and female mice", "value": "produced an anti-nociceptive response"},
      {"measurement": "tail-flick latency", "setting": "C57BL/6Crl mice [4]; 10 mg/kg i.v., i.p. and p.o., male mice, 20 min post-injection", "value": "did not alter tail-flick latency"},
      {"measurement": "anti-nociception, dose-response", "setting": "C57BL/6Crl mice [4]; [6]", "value": "produced a modest effect but only at the highest dose tested, 30 mg/kg"},
      {"measurement": "anti-nociceptive effect (tail-flick)", "setting": "C57BL/6Crl mice [4]; CBG given i.p.", "value": "10% ± 0.83%"},
      {"measurement": "ED50", "setting": "C57BL/6Crl mice [4]; 20 min, i.v., both sexes, 20 min post-administration, read-out: ED50 tail-flick latency", "value": "> 30", "unit": "mg/kg"},
      {"measurement": "ED50", "setting": "C57BL/6Crl mice [4]; both sexes, read-out: ED50 tail-flick latency, estimate exceeding the dose range (square brackets)", "value": "> 30", "unit": "mg/kg"},
      {"measurement": "ED50", "setting": "C57BL/6Crl mice [4]; males, read-out: ED50 tail-flick latency", "value": "> 30", "unit": "mg/kg"},
      {"measurement": "intoxication relative to THC, anti-nociception", "setting": "C57BL/6Crl mice [4]; [7]", "value": 3.6, "unit": "%"},
      {"measurement": "Intoxication ratio, tail-flick latency", "setting": "C57BL/6Crl mice [4]; both sexes", "value": 0.036},
      {"measurement": "Intoxication ratio, tail-flick latency", "setting": "C57BL/6Crl mice [4]; females", "value": 0.038},
      {"measurement": "ED50 tail-flick latency", "setting": "C57BL/6Crl mice [4]; i.v., females", "value": "> 30", "unit": "mg/kg"},
      {"measurement": "CB1R affinity relative to THC", "setting": "CB1R", "value": "approximately one-twentieth"},
      {"measurement": "anti-nociceptive effect", "setting": "male mice", "value": "evoked an anti-nociceptive effect"},
      {"measurement": "mean blood concentration of CBG relative to THC", "setting": "[5]; 10 mg/kg i.v., higher than THC", "value": "approximately 5 times"},
      {"measurement": "concentration at 10 min", "setting": "[5]; both, C57BL/6Crl, mouse, whole blood, intravenous, 10 mg/kg", "value": 2700, "unit": "ng/mL"}
    ]}
  ]
}
